The record followed here is US7850984B2, “Protection of the female reproductive system from natural and artificial insults” (The General Hospital Corporation, priority 2000, dated 2010).

Molecules are shown by their SMILES. “Also recorded” adds a separate entry of the source.

The data set relates to F1 and F2 mice. As to the kind of experiment: Necropsy, histology and hematology of F1 and F2 offspring. The class given is in vivo. Particulars: for HCT / HGB, Hemoglobin / MCH, Mean Corpuscular Hemoglobin / MCHC, Mean Corpuscular Hemoglobin Content / MCV, Mean Corpuscular Volume / RBC, Red Blood Cell Count / WBC, Total White Blood Cell Count: 0.1 Gy + S1P, mean, 95% confidence limit; for Pathology, gross necropsy / Pathology, histology: offspring of 0.1 Gy + S1P mothers. The protocol:
When the F1 animals reach 18-20 months of age and the F2 animals reach 12-16 months of age, all mice are euthanized and subjected to gross necropsy and biochemical analysis. Organs from a subgroup of 65 randomly selected animals in the two different generations are also subjected to complete histologic analysis.
Eighteen to 20 month-old F1 mice, and 12-16 month-old F2 mice, are euthanized and gross pathology is assessed immediately upon death. In a total of 484 mice, the heart, lung, stomach, small and large intestine, liver, salivary gland, kidney, urinary bladder, brain, cervical spinal cord, muscle, bone, bone marrow, skin, pituitary, thyroid, pancreas, adrenal, lymph node, spleen, thymus, testis (males), seminal vesicle (males), prostate (males), ovary (females), and uterus (females) are evaluated. Any organ showing gross abnormalities is fixed with 10% paraformaldehyde, encased in paraffin, and stained with hematoxylin and eosin for in-depth histologic analysis. Furthermore, histology on all organs is performed on 65 randomly selected mice of different generations (F1 or F2), different genders, and different experimental treatments. From an additional 28 randomly-selected mice, blood is collected by cardiac puncture for hematologic analysis, and in 9 animals full differential counts are performed. Differential white cell counts are also performed in all mice displaying a pathological phenotype.

Setting [1] is: N=189, numbers in parenthesis = animals.

For `CCCCCCCCCCCCC/C=C/[C@@H](O)[C@@H](N)COP(=O)(O)O` [S1P, sphingosine-1-phosphate], for the setting “first group (N=69)”, the HCT is given as 45.4; the “HGB, Hemoglobin” value came to 14.2 g/dL; the “MCH, Mean Corpuscular Hemoglobin” value was 15.3 pg; the “MCHC, Mean Corpuscular Hemoglobin Content” value was 31.4 g/dL. Also, where the note is “first group (N=69)”, the “MCV, Mean Corpuscular Volume” value was determined as 49.1 fL; the “RBC, Red Blood Cell Count” value turned out to be 9.3e+12 L⁻¹; the “WBC, Total White Blood Cell Count” value is 1.09e+10 L⁻¹. Also, where the note is “second group (N=189)”, the HCT is 46.3; the “HGB, Hemoglobin” value amounted to 14.9 g/dL; the “MCH, Mean Corpuscular Hemoglobin” value is given as 15.9 pg; the “MCHC, Mean Corpuscular Hemoglobin Content” value amounted to 30.8 g/dL. For the same compound, under “second group (N=189)”, the “MCV, Mean Corpuscular Volume” value worked out at 49.2 fL; the “RBC, Red Blood Cell Count” value stood at 9.4e+12 L⁻¹; the “WBC, Total White Blood Cell Count” value came to 1.1e+10 L⁻¹. Moreover, the “gross histologic or biochemical abnormalities in offspring” value (F1 at 18-20 months, F2 at 12-16 months) was “No gross histologic or biochemical abnormalities”. In addition, the “Pathology, gross necropsy” value (N=69) is given as “Enlarged uterus; also recorded: Perineal tumor”. Also, the “Pathology, histology” value (N=69, numbers in parenthesis = animals) was “LI in liver (2); also recorded: LI in lung (3); also recorded: Mucometra; also recorded: Lipoma”. Besides, under setting [1], the “Pathology, gross necropsy” value is listed as “Dermatitis (3); also recorded: Cyst in right ovary; also recorded: Alopecia; also recorded: Traumatic injury” and the “Pathology, histology” value is listed as “LI in lung (7); also recorded: Liver (3); also recorded: Kidney; also recorded: Ovarian cyst”.
